Values quoted from earlier work as cited in paper PMC11235333, “Glucagon-like peptide-1 stimulates acute secretion of pro-atrial natriuretic peptide from the isolated, perfused pig lung exposed to warm ischemia” (Frontiers in Transplantation, 2022).

System: lipopolyssacharide induced endotoxemia in rats
Conditions: lipopolysaccharide induced endotoxemia, after 3 h, ref Yanay et al.
Description: In studies with 24 h EVLP and transplantation of donor lungs, a rise of IL-8 concentration, proportional to the duration of warm ischaemia, was observed ([78], [79]). In the majority of studies investigating the anti-inflammatory effects of GPL-1 in the lungs, treatment was given more than 6 ...

## exendin-4
  Inflammatory cytokines: decreased IL-1α, IL-1β, IL-6, TNFα and IFNγ but not IL-10
